Measurements: paper PMC7395068, “The evolution of strategies to minimise the risk of human drug-induced liver injury (DILI) in drug discovery and development” (Archives of Toxicology, 2020)
Like-named read-outs stand apart in the source and are kept apart here.

Columns and labels:
[1] = cited from earlier work
PHH = conditions: cited from earlier work
HepG2 [2] = conditions: cited from earlier work
[3] = cited from earlier work; remark: listed apart in the source
human hepatocytes = conditions: cited from earlier work
hu-MPCC = conditions: cited from earlier work
RMPCC's [4] = conditions: cited from earlier work
[5] = Plasma free fraction (fu) and unbound Cmax (Cmax,u); type: in vitro ADME, human; conditions: unbound plasma Cmax
Description: The prediction of DILI severity was evaluated further using the 3D combined HCI assays using plasma-free fraction. The majority of fu values were obtained from literature, when unavailable in-house prediction was utilised. Unbound plasma Cmax concentrations (Cmax,u) were derived by multiplying total plasma Cmax with the corresponding free fraction (fu) for each compound.

HepG2 [6] = tested on: HepG2; parameters: method as in Albrecht 2019; conditions: In vitro Assay; ref Albrecht 2019; cited from earlier work
[7] = tested on: primary human hepatocytes, NIH3T3 fibroblasts, BSEP, CYP3A4; conditions: cited from earlier work
HepG2 cells [8] = conditions: cited from earlier work
[9] = tested on: THLE or HepG2 cells, isolated mitochondria, BSEP; conditions: cited from earlier work
[10] = read-out: Human plasma Cmax; total plasma Cmax.tot, median of 9 literature references; cited from earlier work
[11] = plasma free fraction; cited from earlier work
[12] = tested on: THLE-Null and THLE-3A4 cells; conditions: In vitro Assay; ref Gustafsson 2014; cited from earlier work
[13] = tested on: HepG2 cells, primary human hepatocytes; conditions: In vitro Assay; ref Garside 2014; cited from earlier work
[14] = tested on: isolated mouse liver mitochondria; conditions: In vitro Assay; ref Porceddu 2012; cited from earlier work
Upcyte human hepatocytes = conditions: In vitro Assay; ref Tolosa 2019; cited from earlier work
[15] = ref Chen 2011; cited from earlier work
rBsep [16] = conditions: In vitro Assay; ref Dawson 2012; cited from earlier work
RMPCC's [17] = conditions: In vitro Assay; ref Khetani 2012; cited from earlier work
hLiMTs = assay: Combined HCI (HCS) and cellular ATP 3D assay in hLiMTs
Description: 3D spheroid models consisting of either primary human hepatocytes with non-parenchymal cells (hLiMT’s) or HepaRG cells (HepaRG spheroids) were assessed for size (MS), oxidative stress (OS), MMP, mitochondrial mass (MM), GSH and cellular ATP content following drug exposure. Fluorescent images are acquired using the confocal mode of an ArrayScan™ XTI HCI reader (ThermoScientific) following which cellular ATP was measured using 3D CellTiter-Glo (Promega).

HepaRG spheroids = assay: Combined HCI (HCS) and cellular ATP 3D assay in HepaRG spheroids; conditions: for AC50 / minimal effective concentration: Homo sapiens; for DILI prediction HepaRG spheroids (HCS-MEC): Microtissue model structural based (HCI), combined HCS and ATP, MEC < 25 × Cmax.tot cut-off
rBsep [18] = tested on: rBsep; parameters: method as in Dawson 2012; conditions: In vitro Assay; ref Dawson 2012; cited from earlier work
HepG2 cells [19] = conditions: In vitro Assay; ref O'Brien 2006; cited from earlier work
[20] = In vitro Assay, ref Schadt 2015
[21] = Modeled in vitro assays (cytotoxicity, mitochondrial dysfunction, BSEP), ref Aleo et al. 2019
[22] = In vitro Assay, ref Albrecht 2019

In the case of `C[S+](C)[O-]` [dimethylsulfoxide], the “In vivo DILI” value ([1]; in vivo) is given as “-VE”, the “Cytotoxicity PHH 48 hrs” value (PHH) is given as “-VE” and the “Cytotoxicity HepG2 48 hrs” value (HepG2 [2]) is given as “-VE”.

In the case of `CCO` [ethanol], the “Cytotoxicity PHH 48 hrs” value (PHH) is given as “+VE” and the “Cytotoxicity HepG2 48 hrs” value (HepG2 [2]) is given as “+VE”.

For `NC(=O)NO` [hydroxyurea], the “DILI +VE (5-8), DILI -VE (-4)” value ([3]; ref Chen 2016) is given as “+VE”, the DILI severity category ([3]; ref Chen 2016) is given as “vMost-DILI-Concern” and the “Structural based (HCI)” value (human hepatocytes) is given as “-VE”. The “In vivo DILI” value ([1]; in vivo) was “+VE”, the “HMPCC's” value (hu-MPCC) was “+VE” and the “RMPCC's” value (RMPCC's [4]) was “+VE”.

In the case of `NNC(=O)c1ccncc1` [isoniazid, reference compound], the “Human plasma Cmax,u” value [5] is listed as 74.267 µM, the “Cytotoxicity HepG2 48 hrs” value (HepG2 [6]) is listed as “+VE” and the “DILI severity category (Chen 2016)” value ([3]; human DILI classification, LTKB DILIrank, ref Chen et al. 2016) is listed as “Most”. For the same compound, the DILI severity category ([3]; human DILI severity, ref Chen et al.) was “Most”, the “DILI +VE (5-8), DILI -VE (-4)” value ([3]; ref Chen 2016) was “+VE” and the DILI severity category ([3]; ref Chen 2016) was “vMost-DILI-Concern”. The “DILI in vitro assay prediction, Schadt (2015)” value ([7]; BSEP & Metabolism based, ref Schadt et al. 2015) was “+VE”, the “Cellular toxicity (3T3 cells)” value [7, 20] was “-VE” and the “Combined Assay” value [7, 20] was “+VE”. For the same compound, the “GSH adduct HML” value [7, 20] was “-VE”, the Hepatocyte cellular toxicity [7, 20] was “-VE” and the “MitoTox 3T3” value [7, 20] was “+VE”. The hBSEP inhibition [7, 20] was “-VE”, the “Structural based (HCI)” value (HepG2 cells [8]; In vitro Assay, ref Tolosa 2012) was “+VE” and the “DILI in vitro assay prediction, Tolosa (2012)” value (HepG2 cells [8]; Structural based (HCI), HepG2, ref Tolosa et al. 2012) was “-VE”. The “Structural based (HCI)” value (human hepatocytes; In vitro Assay, ref Xu 2008) was “-VE”, the “DILI in vitro assay prediction, Xu (2008)” value (human hepatocytes; Structural based (HCI), human hepatocytes, ref Xu et al. 2008) was “-VE” and the “Partition Hybrid HRM Score” value ([9]; In vitro Assay, ref Aleo 2019) was “+VE”. The “Ro2 Hybrid HRM Score” value ([9]; In vitro Assay, ref Aleo 2019) was “-VE”, the “Partition Hybrid HRM Score ≥4, Aleo (2019)” value [9, 21] was “+VE (Partition Hybrid HRM Score ≥4)” and the “Partition Hybrid HRM Score ≥8, Aleo (2019)” value [9, 21] was “-VE”. For the same compound, the “Rule of Two hybrid HRM Score ≥3, Aleo (2019)” value [9, 21] was “-VE”, the “Rule of Two hybrid HRM Score ≥8, Aleo (2019)” value [9, 21] was “-VE” and the Cmax [10] was 76.6 µM. For the same compound, the fu [11] was 0.970, the “Assigned DILI category” value ([1]; Chen et al. 2016 or literature alignment, ref Chen et al. 2016) was 3 and the “In vivo DILI” value ([1]; […]) was “+VE”. The “In vivo DILI” value ([1]; ref Albrecht 2019) was “+VE”, the “In vivo DILI” value ([1]; ref Aleo 2019) was “+VE” and the “In vivo DILI” value ([1]; ref Dawson 2012) was “+VE”. The “In vivo DILI” value ([1]; ref Garside 2014) was “+VE”, the “In vivo DILI” value ([1]; ref Gustafsson 2014) was “+VE” and the “In vivo DILI” value ([1]; ref Khetani 2012) was “+VE”. The “In vivo DILI” value ([1]; ref Porceddu 2012) was “+VE”, the “In vivo DILI” value ([1]; ref Schadt 2015) was “+VE” and the “In vivo DILI” value ([1]; ref Tolosa 2012) was “+VE”. For the same compound, the “In vivo DILI” value ([1]; ref Tolosa 2019) was “+VE”, the “In vivo DILI” value ([1]; ref Xu 2008) was “+VE” and the “Cytotoxicity PHH 48 hrs” value (PHH; [22]) was “+VE”. For the same compound, the “HMPCC's” value (hu-MPCC; In vitro Assay, ref Khetani 2012) was “+VE”, the THLE-Null [12] was “-VE” and the “Cluster 1-6 +VE Assay” value [13] was “-VE”. For the same compound, the “in vitro data EC2<=1x Cmax” value [14] was “+VE”, the “in vitro data EC20<=2uM” value [14] was “-VE” and the “Upcytes multi donor assay 14day data” value (Upcyte human hepatocytes) was “+VE”. The “DILI Score (FDA) (1-8)” value [15] was 8, the “Inhibition of rBsep cutoff<1& cmax u>.2” value (rBsep [16]) was “-VE” and the “Inhibition of rBsep cutoff<3” value (rBsep [16]) was “-VE”. The “RMPCC's” value (RMPCC's [17]) was “-VE”, the “DILI prediction hLiMTs (HCS-MEC)” value (hLiMTs; Microtissue model structural based (HCI), combined HCS and ATP, MEC < 25 × Cmax.tot cut-off) was “-VE” and the “hLiMTs <25x Avg Cmax ATP” value (hLiMTs; hLiMTs, ATP endpoint, cut-off <25x Avg Cmax) was “-ve”. For the same compound, the “hLiMTs <100x Avg Cmaxu ATP” value (hLiMTs; hLiMTs, ATP endpoint, cut-off <100x Avg Cmaxu) was “-ve”, the “hLiMTs <25x Avg Cmax HCS” value (hLiMTs; hLiMTs, HCS endpoints, cut-off <25x Avg Cmax) was “-ve” and the “hLiMTs <100x Avg Cmaxu HCS” value (hLiMTs; hLiMTs, HCS endpoints, cut-off <100x Avg Cmaxu) was “-ve”. For the same compound, the “hLiMTs <25x Avg Cmax All” value (hLiMTs; hLiMTs, all endpoints (ATP and HCS), cut-off <25x Avg Cmax) was “-ve”, the “hLiMTs Cmax max All” value (hLiMTs; hLiMTs, all endpoints, Cmax max used) was “-ve” and the “hLiMTs Cmax min All” value (hLiMTs; hLiMTs, all endpoints, Cmax min used) was “-ve”. The “hLiMTs <10 uM All” value (hLiMTs; hLiMTs, all endpoints, cut-off <10 uM) was “-ve”, the “hLiMTs <100x Avg Cmaxu All” value (hLiMTs; hLiMTs, all endpoints, cut-off <100x Avg Cmaxu) was “-ve” and the “HepaRG <25x Avg Cmax ATP” value (HepaRG spheroids; HepaRG, ATP endpoint, cut-off <25x Avg Cmax) was “+ve”. For the same compound, the “HepaRG <100x Avg Cmaxu ATP” value (HepaRG spheroids; HepaRG, ATP endpoint, cut-off <100x Avg Cmaxu) was “+ve (<100x Avg Cmaxu)”, the “HepaRG <25x Avg Cmax HCS” value (HepaRG spheroids; HepaRG, HCS endpoints, cut-off <25x Avg Cmax) was “-ve” and the “HepaRG <100x Avg Cmaxu HCS” value (HepaRG spheroids; HepaRG, HCS endpoints, cut-off <100x Avg Cmaxu) was “+ve (<100x Avg Cmaxu)”. For the same compound, the “HepaRG <25x Avg Cmax All” value (HepaRG spheroids; HepaRG, all endpoints (ATP and HCS), cut-off <25x Avg Cmax) was “+ve”, the “HepaRG Cmax max All” value (HepaRG spheroids; HepaRG, all endpoints, Cmax max used) was “+ve” and the “HepaRG Cmax min All” value (HepaRG spheroids; HepaRG, all endpoints, Cmax min used) was “-ve”. The “HepaRG <10 uM All” value (HepaRG spheroids; HepaRG, all endpoints, cut-off <10 uM) was “-ve”, the “HepaRG <100x Avg Cmaxu All” value (HepaRG spheroids; HepaRG, all endpoints, cut-off <100x Avg Cmaxu) was “+ve (<100x Avg Cmaxu)” and the AC50 (HepaRG spheroids; HepaRG, read-out: ATP endpoint AC50) was 3.52 mM. For the same compound, the minimal effective concentration (HepaRG spheroids; HepaRG, read-out: ATP endpoint MEC) was 1330 µM, the AC50 (HepaRG spheroids; HepaRG, read-out: HCS endpoint AC50) was 14 mM and the minimal effective concentration (HepaRG spheroids; HepaRG, read-out: HCS endpoint MEC) was 5790 µM. The “DILI prediction HepaRG spheroids (HCS-MEC)” value (HepaRG spheroids) was “+VE (MEC < 25 × Cmax.tot cut-off)” and the “DILI prediction HepaRG spheroids (HCS-MEC)” value (HepaRG spheroids; listed as Isoniazid) was “positive”.

For `COc1ccc2[nH]cc(CCNC(C)=O)c2c1` [melatonin], the “Structural based (HCI)” value (human hepatocytes; In vitro Assay, ref Xu 2008) is listed as “-VE”, the “Cytotoxicity PHH 48 hrs” value (PHH; [22]) is listed as “-VE” and the “Cytotoxicity HepG2 48 hrs” value (HepG2 [2]; [22]) is listed as “-VE”.

In the case of `C#CC1(O)CC[C@H]2[C@@H]3CCC4=CC(=O)CC[C@@H]4[C@H]3CC[C@@]21CC` (stereo partly drawn) [norgestrel], the “Structural based (HCI)” value (human hepatocytes) is given as “-VE”, the “In vivo DILI” value ([1]; in vivo) is given as “+VE” and the “HMPCC's” value (hu-MPCC) is given as “-VE”. For the same compound, the “RMPCC's” value (RMPCC's [4]) was “-VE”.

For `CCCC(CCC)C(=O)O` [valproate], the “Inhibition of rBsep cutoff<1& cmax u>.2” value (rBsep [18]) is listed as “-VE”, the “Inhibition of rBsep cutoff<3” value (rBsep [18]) is listed as “-VE” and the “Structural based (HCI)” value (HepG2 cells [19]) is listed as “+VE (lowest HCI endpoint IC50 (or in the absence of dose–response < 100 µM) < 30 × total human plasma exposure levels (Cmax.tot))”. The “Upcytes multi donor assay 14day data” value (Upcyte human hepatocytes) was “+VE”.
